Experimental data as given in patent US20210361683A1, “COMPOSITIONS AND METHODS FOR THE TREATMENT OF MUSCLE CONTRACTURES” (Children's Hospital Medical Center, priority 2018, published 2021).
Entries after “also recorded” stand apart in the source; their conditions may differ.

Legend:
[1] = test system: elbow and shoulder contractures after neonatal brachial plexus injury (NBPI); test: Elbow and shoulder contracture severity (range of motion) in mouse model of NBPI; assay type: in vivo, mice; conditions: for shoulder and elbow contracture severity: 4 weeks after NBPI; for contracture severity (efficacy): compared to 0.4 mg/kg from P5
From the text: All animal procedures were approved by Cincinnati Children's Hospital Medical Center's Institutional Animal Care and Use Committee. Unilateral global (C5-T1) NBPIs were created by surgical extraforaminal nerve root excision in 5-day-old CD-1 mice (Charles River) under general anesthesia. Deficits in motor function were validated post-operatively and again prior to sacrifice to ensure only animals with permanent motor deficits were included for analysis. Elbow and shoulder (where indicated) range of motion were measured immediately post-sacrifice using a validated digital photography technique in order to confirm the presence of elbow flexion and shoulder internal rotation contractures^16. Mice were euthanized by CO2 asphyxiation, except at postnatal day 5 and 12 time points, where isoflurane overdose was utilized.
(§1) Mice were treated either with saline (as the vehicle; 0.9% Sodium Chloride Injection USP, Hospira), [Gly^14]-Humanin G ([Gly14]-HN; 1 μg/dose; H6161, Sigma-Aldrich) alone or co-administered with Bortezomib (0.2-0.4 mg/kg body weight; 5043140001, Sigma-Aldrich) by IP injection starting immediately post-operative or delayed by 3/7 days (P8/12 start), and injected every other day with sacrifice at 4 weeks post-NBPI (24 h following the last IP injection). The use of littermate controls was rejected due to the risk of treatment cross-contamination either through direct contact or by ingestion from their mother, and [Gly14]-HN was included to mitigate the toxicity that has been reported for Bortezomib^47. Deficits in motor function were confirmed as described above, and measurement of shoulder and elbow range of motion was measured immediately post-sacrifice^16 with blinding to the treatment group. Mouse limbs harvested 4 weeks post-NBPI were positioned on cork for processing of bilateral brachialis muscles for DIC microscopy as described above for measurement of muscle sarcomere length.

[2] = test system: brachialis muscle after NBPI; test: Brachialis sarcomere length (muscle length) 4 weeks post-NBPI; assay type: in vivo, mice; conditions: 0.3 mg/kg, P8 to P33
Method: Sarcomere lengths were measured from single muscle fibers, acquiring 6 images per fiber by differential interference contrast (DIC) microscopy on a Nikon Eclipse Ti-E inverted microscope with the Plan Apo λ40× objective (Nikon Instruments), Xyla 4.2 megapixel, 16-bit sCMOS monochromatic camera (Andor/Oxford Instruments) and NIS-Elements imaging software (Nikon Instruments). A series of 10 sarcomeres were measured per image in AxioVision software and an average sarcomere length was then determined for each fiber.
Mouse limbs harvested 4 weeks post-NBPI were processed on cork at 90° elbow flexion (confirmed by digital x-ray) prior to fixation in 10% NBF as described previously^16. […]
Mice were treated either with saline (as the vehicle; 0.9% Sodium Chloride Injection USP, Hospira), [Gly^14]-Humanin G ([Gly14]-HN; 1 μg/dose; H6161, Sigma-Aldrich) alone or co-administered with Bortezomib (0.2-0.4 mg/kg body weight; 5043140001, Sigma-Aldrich) by IP injection starting immediately post-operative or delayed by 3/7 days (P8/12 start), and injected every other day with sacrifice at 4 weeks post-NBPI (24 h following the last IP injection). […] Deficits in motor function were confirmed as described above, and measurement of shoulder and elbow range of motion was measured immediately post-sacrifice^16 with blinding to the treatment group. […]

[3] = Survival / mortality of NBPI mice during treatment; assay type: in vivo
Method: as §1

Row | Compound | shoulder and elbow contracture severity ([1]; [Gly14]-Humanin alone, 1 μg/dose IP every other day) | reduction in the sarcomere elongation caused by NBPI (rescue of brachialis length) [2] [%] | sarcomere length in the brachialis [2] | mortality ([3]; 0.2 mg/kg, P5 to P33) | mortality ([3]; 0.3 mg/kg, P5 to P33, compared to 0.4 mg/kg from P5) | mortality (early death) ([3]; 0.3 mg/kg, P8 to P33) | mortality ([3]; 0.4 mg/kg every other day, P5 to P33) | mortality ([3]; 0.4 mg/kg, P8 to P33, compared to 0.4 mg/kg from P5) | mortality ([3]; 0.4 mg/kg, P12-P33) | contracture severity ([1]; 0.2 mg/kg, P5 to P33) | contracture severity (efficacy) ([1]; 0.3 mg/kg, P5 to P33) | prevention of contractures ([1]; 0.3 mg/kg, P8 to P33) | shoulder and elbow contracture severity ([1]; 0.4 mg/kg every other day IP, P5 to P33, co-administered with [Gly14]-Humanin, vs saline) | contracture severity (efficacy) ([1]; 0.4 mg/kg, P8 to P33) | contracture severity ([1]; 0.4 mg/kg, P12-P33) | prevention of contractures, dose dependence ([1]; 0.2-0.4 mg/kg following NBPI)
1 | [Gly^14]-Humanin | no effect alone |  |  |  |  |  |  |  |  |  |  |  |  |  |  | 
2 | CC(C)C[C@H](NC(=O)[C@H](Cc1ccccc1)NC(=O)c1cnccn1)B(O)O [Bortezomib, ([1R)-3-methyl-1-[[(2S)-1-oxo-3-phenyl-2-[(pyrazinylcarbonyl)amino]propyl]amino]butyl]-boronic acid] |  | 70 | preserves muscle length | eliminated mortality | partially improved mortality | minimal early death | caused mortality, mostly in the first week of treatment | partially improved mortality | eliminated mortality | less severe contractures compared to saline they were not as efficacious as 0.4 mg/kg Bortezomib administered beginning at P5 | maintained efficacy | optimal efficacy in prevention of contractures; also recorded: lack of contractures | significantly reducing shoulder and elbow contracture severity; also recorded: corrected | maintained efficacy | less severe contractures compared to saline they were not as efficacious as 0.4 mg/kg Bortezomib administered beginning at P5 | prevents contractures in a dose-dependent manner
